For assay [1] the following is noted: background, reference (9); cited from earlier work.
The subject of assay [2] is immune infiltrate of MCA205 tumors. As to the kind of experiment: Immunophenotyping of the tumor immune infiltrate by flow cytometry. It counts as in vivo, C57B1/6 mice. The note with it: for Density of CD45+ leukocytes in the tumor: day 11 post-chemotherapy. Here is the method:
3 or 11 days post-chemotherapy (d3 or d11), mice were euthanized and the tumors were withdrawn and placed in gentleMACS C tubes (ref 130-096-334 from Miltenyi BiotecTM) previously filled with 1 ml of DMEM or RPMI medium, and immediately put on ice. […] Then, cells were stained with a live dead dye (ref L34959 from ThermoFisher ScientificTM) and an FCblock receptor targeting antibody. For the surface stainings, several anti-mouse fluorochrome-coupled antibodies were employed, that were for 1) myeloid cells “staining 1”: anti-CD45 APC-Fire750 (clone 30E-11, ref 130154 BiolegendTM), anti-Ly-6G PE (clone 1A8, ref 551461 BDTM), anti-Ly-6C FITC (clone AL-21, ref 553104, BDTM), anti-CD11b V450 (clone M1/70, ref 560455 BDTM), anti-CD11c PE-Cy7 (clone HL3, ref 558470 BDTM), anti-CD80 PerCP-Cy5.5 (16-10A1, ref 104722 BiolegendTM), and anti-MHC-II APC (clone M5/114.15.2, ref 107614 BiolegendTM) 2) T-cells “staining 2”: anti-CD3 APC (clone 17A2, ref 17-0032-82 eBioscienceTM), anti-CD8 PE (clone 53-6.7, ref 553032 BDTM), anti-CD4 PerCP-Cy5.5 (clone RM4-5, ref 45-0042-82 eBioscienceTM), anti-CD25 PE-Cy7 (clone PC61.5, ref 25-0251-82 InvitrogenTM), anti-ICOS BV421 (clone 7E.17G9, ref 564070 BDTM) and anti-PD-1 APC-Fire750 (clone 29F.1Al2, ref 135240 BiolegendTM) 3) PD-L1 expressing-cells “staining 4”: anti-CD45 AlexaFluor647 (clone 30E-11, ref 103-124 BiolegendTM), anti-PD-L1 BV421 (clone MIHS, ref 564716 BDTM) and anti-PD-L2 PE-Dazzle594 (clone TY25, ref 107215 BiolegendTM) 4) NKT cells “staining 5”: anti-CD3 FITC (clone 17A2, ref 11-00-32-82 eBioscienceTM) and anti-NK1.1 PerCP-Cy5.5 (clone PK136, ref 551114 BDTM). After the fixation and permeabilization of the cells (thanks to the Cytofix/Cytoperm kit, ref 554714 BDTM for stainings 1, 3, 4 and 5; and with the Foxp3/Transcription Factor kit, ref 00-5523-00 eBioscienceTM for staining 2), intracellular stainings were performed using for “staining 2”: anti-FoxP3 FITC (clone FJK-16s, ref 11-5773-82 eBioscienceTM) and for “staining 3”: anti-IFNg APC (clone XMG1.2, ref 505-810 BiolegendTM), anti-TNFα APC-Cy7 (clone MP6-XT22, ref 506344 BiolegendTM) and anti-IL-2 PE-Dazzle 594 (clone JES6-5H4, ref 503-840 BiolegendTM). Finally, cells were resuspended in FACS buffer and analyzed on a flow cytometer BD LSR II.

The next assay deals with MCA205 fibrosarcoma. Description: Subcutaneous MCA205 fibrosarcoma: tumor growth, cure and survival under chemo-immunotherapy. It counts as in vivo, C57B1/6 mice.
Another assay deals with PD-1. Description: PD-1 expression in tumors. It counts as in vivo, C57B1/6 mice. As to conditions: MTX alone or together with fasting or CRMs; data not shown. Here is the method:
3 or 11 days post-chemotherapy (d3 or d11), mice were euthanized and the tumors were withdrawn and placed in gentleMACS C tubes (ref 130-096-334 from Miltenyi Biotec™) previously filled with 1 ml of DMEM or RPMI medium, and immediately put on ice. After a mechanical (with scissors) and chemical digestion (thanks to the tumor dissociation kit and the gentleMACS Octo Dissociator, ref 130-096-730 and 130-096-427, respectively, from Miltenyi Biotec™), tumors were filtered (using MACS smartstrainers […], ref 130-110-916 from Miltenyi Biotec™), washed twice with PBS and distributed in a 96-wells round bottom plate.
Then, cells were stained with a live dead dye (ref L34959 from ThermoFisher Scientific™) and an FCblock receptor targeting antibody. […] Finally, cells were resuspended in FACS buffer and analyzed on a flow cytometer BD LSR II.

The next assay concerns CTLA-4. As to the kind of experiment: CTLA-4 expression in tumors. It is filed as in vivo, C57B1/6 mice. As to conditions: MTX alone or together with fasting or CRMs; data not shown.
Setting [3] is: day 11 post-MTX, data not shown.

Regarding `O=C(O)CC(O)(C(=O)O)C(O)C(=O)O` (stereo not drawn) [HC, hydroxycitrate], the “Efficacy of anticancer chemotherapy with immunogenic cell death (ICD) inducers” value in assay [1] is listed as “able to improve the efficacy”. Moreover, in assay [2] (combined with MTX, data not shown), the “Increase in the density of total CD3+ and CD8+ T cell infiltrate” value is on record as “neither HC nor spermidine”. In addition, the Myeloid infiltrate result in assay [2] (day 3 post-chemotherapy (MTX), data not shown) is listed as “no major increments”. Moreover, in assay [2] (setting [3]), the “Granulocyte infiltration (Ly6C+Ly6Ghi)” value is “increase” and the “Monocytic dendritic cell subpopulation with activation markers (Ly6G-Ly6ChiCD11b+CD11c+CD80+MHC-IIhi)” value is reported as “increase”. For the same compound, the “Density of CD45+ leukocytes in the tumor” value in assay [2] (MTX-treated animals that received HC) is listed as “more so”. For the same compound, in the assay with MCA205 fibrosarcoma (CRM added to OXA+PD-1 blockade), the Cure rate is recorded as 80% and the Cured mice was 16 out of 20. The “Efficacy of OXA and anti-PD-1 combination when the CRM is added” value with MCA205 fibrosarcoma (figure legend FIG. 7) is “further enhanced”.
For the compound `O=C1c2c(O)ccc(O)c2C(=O)c2c(NCCNCCO)ccc(NCCNCCO)c21` [MTX, mitoxantrone], in the assay with PD-1, the “Expression of PD-1” value is recorded as “No changes”. The “Expression of CTLA-4” value in the assay on CTLA-4 is listed as “No changes”. The “Density of CD45+ leukocytes in the tumor” value in assay [2] (MTX-treated cancers) is “higher density”.

These data come from US20210030703A1, “USE OF CALORIC RESTRICTION MIMETICS FOR POTENTIATING CHEMO-IMMUNOTHERAPY FOR THE TREATMENT OF CANCERS” (INSERM (INSTITUT NATIONAL DE LA SANTÉ ET DE LA RECHERCHE …, priority 2018, published 2021).
